Data taken from ChEMBL document CHEMBL4265889, “Design and synthesis of tetrahydropyridopyrimidine based Toll-Like Receptor (TLR) 7/8 dual agonists” (Bioorg Med Chem Lett, 2018).

Tests used:
[1] = target: T1, Toll-like receptor 7 (Homo sapiens) (UniProt Q9NYK1); assay: Agonist activity at human TLR7 expressed in HEK293 cells after 6 hrs by NFkappaB-luciferase reporter gene assay; type: cell-based
T1 sequence (whole entry): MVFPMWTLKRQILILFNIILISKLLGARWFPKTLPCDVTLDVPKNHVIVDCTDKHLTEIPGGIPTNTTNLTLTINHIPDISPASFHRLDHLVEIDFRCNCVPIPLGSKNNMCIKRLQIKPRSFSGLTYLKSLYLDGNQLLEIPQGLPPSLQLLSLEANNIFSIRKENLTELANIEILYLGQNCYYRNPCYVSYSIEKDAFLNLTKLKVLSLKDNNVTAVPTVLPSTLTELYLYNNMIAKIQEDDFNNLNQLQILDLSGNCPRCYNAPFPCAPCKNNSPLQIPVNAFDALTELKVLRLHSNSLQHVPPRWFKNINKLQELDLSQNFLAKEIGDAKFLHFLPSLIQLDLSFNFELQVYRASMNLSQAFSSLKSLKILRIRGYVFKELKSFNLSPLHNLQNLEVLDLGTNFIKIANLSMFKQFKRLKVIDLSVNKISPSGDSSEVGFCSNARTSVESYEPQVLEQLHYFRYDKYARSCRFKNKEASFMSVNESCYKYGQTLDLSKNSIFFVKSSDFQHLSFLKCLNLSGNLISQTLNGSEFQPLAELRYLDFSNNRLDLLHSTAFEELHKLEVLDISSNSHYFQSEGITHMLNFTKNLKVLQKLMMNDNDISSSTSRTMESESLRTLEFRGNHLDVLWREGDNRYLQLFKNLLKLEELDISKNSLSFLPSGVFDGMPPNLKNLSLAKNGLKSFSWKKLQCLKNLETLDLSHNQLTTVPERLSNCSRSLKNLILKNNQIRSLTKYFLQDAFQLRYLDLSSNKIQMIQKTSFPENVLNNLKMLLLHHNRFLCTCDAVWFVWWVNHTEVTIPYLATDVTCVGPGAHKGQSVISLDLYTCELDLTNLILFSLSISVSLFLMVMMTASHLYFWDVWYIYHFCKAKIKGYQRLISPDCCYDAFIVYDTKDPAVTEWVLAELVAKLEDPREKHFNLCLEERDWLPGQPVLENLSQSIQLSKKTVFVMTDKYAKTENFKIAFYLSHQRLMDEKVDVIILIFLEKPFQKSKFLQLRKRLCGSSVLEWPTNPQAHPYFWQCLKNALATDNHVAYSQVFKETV

[2] = Cytotoxicity against HEK293 cells transfected with the CMV-TLR7 construct assessed as reduction in cell viability after 6 hrs by ATPlite assay; type: cell-based; details: human
[3] = target: T1, Toll-like receptor 7 (Homo sapiens); assay: Agonist activity at TLR7 in human PBMC assessed as suppression of HCV replicon replication in human HuH7 luc/neo cells harboring RNA encoding bicistronic expression construct comprising wild type HCV type 1b NS3-NS5B regions exposed to conditioned media from compound treated PBMCs after 24 hrs by luciferase reporter gene assay; type: cell-based
[4] = system: Mus musculus; assay: Induction of innate immune response in C57BL/6 mouse assessed as IFNalpha Cmax in liver at 5 mg/kg, po; type: functional, organism-based; parameters: dose 5 mg/kg
[5] = system: Mus musculus; assay: Induction of innate immune response in C57BL/6 mouse assessed as IP-10 Tmax at 5 mg/kg, po; type: functional, organism-based
[6] = target: Dopamine receptor (Homo sapiens) (UniProt P14416+P35462+P21918+P21917+P21728); assay: Binding affinity to dopamine receptor (unknown origin); type: protein assay

In the case of `CCC[C@@H](CCO)Nc1nc(N)nc2c1CN(C(=O)c1csc(C)n1)CC2`, the MEC [1] is reported as 1.5 µM, the CC50 at 6 h [2] is reported as over 24 µM and the MEC [3] is reported as 0.2 µM. For the same compound, the Cmax [4] was 0 pg/g, the Tmax [5] was 4 h and the Activity [6] was over 10 µM.
